# Laboratory results reported in ChEMBL document CHEMBL3769377, “A synthesis, in silico, in vitro and in vivo study of thieno[2,3-b]pyridine anticancer analogues” (Medchemcomm, 2015).
# How the values were obtained:
# [1] = target: Casein kinase I isoform delta (Homo sapiens) (UniProt P48730); experiment: Inhibition of human recombinant CSNK1D assessed as residual activity at 10 uM after 1 hr by qPCR analysis relative to control
# [2] = target: Dual specificity tyrosine-phosphorylation-regulated kinase 1B (Homo sapiens) (UniProt Q9Y463); experiment: Inhibition of human recombinant DYRK1B assessed as residual activity at 10 uM after 1 hr by qPCR analysis relative to control
# Sequence of Dual specificity tyrosine-phosphorylation-regulated kinase 1B (Homo sapiens) (Q9Y463 whole entry, looked up): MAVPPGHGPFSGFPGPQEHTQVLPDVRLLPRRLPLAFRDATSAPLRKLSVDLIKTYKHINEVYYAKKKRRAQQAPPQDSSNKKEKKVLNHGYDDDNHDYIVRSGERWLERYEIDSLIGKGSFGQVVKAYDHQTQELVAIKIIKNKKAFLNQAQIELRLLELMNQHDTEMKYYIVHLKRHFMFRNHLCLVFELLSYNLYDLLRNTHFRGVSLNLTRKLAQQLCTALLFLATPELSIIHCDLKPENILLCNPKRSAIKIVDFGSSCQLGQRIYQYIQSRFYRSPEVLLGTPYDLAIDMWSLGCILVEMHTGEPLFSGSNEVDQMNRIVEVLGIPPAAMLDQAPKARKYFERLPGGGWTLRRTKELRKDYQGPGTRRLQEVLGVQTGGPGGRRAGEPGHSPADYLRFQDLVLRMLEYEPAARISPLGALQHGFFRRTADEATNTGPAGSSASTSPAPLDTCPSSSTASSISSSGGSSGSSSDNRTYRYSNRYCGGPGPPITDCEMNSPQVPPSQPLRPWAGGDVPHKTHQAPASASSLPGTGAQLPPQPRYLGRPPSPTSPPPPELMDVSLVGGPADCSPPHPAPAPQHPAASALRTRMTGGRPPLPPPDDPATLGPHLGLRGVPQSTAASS
# [3] = target: Ephrin type-A receptor 2 (Homo sapiens) (UniProt P29317); experiment: Inhibition of human recombinant EPHA2 assessed as residual activity at 10 uM after 1 hr by qPCR analysis relative to control
# [4] = target: MAP/microtubule affinity-regulating kinase 3 (Homo sapiens) (UniProt P27448); experiment: Inhibition of human recombinant MARK3 assessed as residual activity at 10 uM after 1 hr by qPCR analysis relative to control
# Sequence of MAP/microtubule affinity-regulating kinase 3 (Homo sapiens) (P27448 whole entry, looked up): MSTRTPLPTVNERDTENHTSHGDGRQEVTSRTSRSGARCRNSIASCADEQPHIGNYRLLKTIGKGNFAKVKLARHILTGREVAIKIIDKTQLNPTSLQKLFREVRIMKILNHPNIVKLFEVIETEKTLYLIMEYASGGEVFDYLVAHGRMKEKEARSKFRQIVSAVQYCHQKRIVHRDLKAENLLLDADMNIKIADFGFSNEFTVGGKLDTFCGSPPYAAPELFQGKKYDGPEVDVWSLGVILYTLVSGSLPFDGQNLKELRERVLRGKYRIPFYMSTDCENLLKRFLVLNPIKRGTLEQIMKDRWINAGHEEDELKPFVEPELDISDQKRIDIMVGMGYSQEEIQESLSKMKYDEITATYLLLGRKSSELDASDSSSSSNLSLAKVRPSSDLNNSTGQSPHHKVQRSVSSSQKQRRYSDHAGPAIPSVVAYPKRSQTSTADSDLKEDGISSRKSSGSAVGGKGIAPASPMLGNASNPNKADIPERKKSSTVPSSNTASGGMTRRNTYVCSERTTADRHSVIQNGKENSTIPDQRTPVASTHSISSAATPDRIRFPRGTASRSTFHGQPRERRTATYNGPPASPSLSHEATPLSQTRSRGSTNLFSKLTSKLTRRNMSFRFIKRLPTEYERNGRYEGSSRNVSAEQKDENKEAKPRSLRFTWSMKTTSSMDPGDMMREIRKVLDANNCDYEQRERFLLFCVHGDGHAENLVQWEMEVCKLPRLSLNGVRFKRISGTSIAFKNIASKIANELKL
# [5] = target: Mitogen-activated protein kinase 3 (Homo sapiens) (UniProt P27361); experiment: Inhibition of human recombinant ERK1 assessed as residual activity at 10 uM after 1 hr by qPCR analysis relative to control
# Sequence of Mitogen-activated protein kinase 3 (Homo sapiens) (P27361 whole entry): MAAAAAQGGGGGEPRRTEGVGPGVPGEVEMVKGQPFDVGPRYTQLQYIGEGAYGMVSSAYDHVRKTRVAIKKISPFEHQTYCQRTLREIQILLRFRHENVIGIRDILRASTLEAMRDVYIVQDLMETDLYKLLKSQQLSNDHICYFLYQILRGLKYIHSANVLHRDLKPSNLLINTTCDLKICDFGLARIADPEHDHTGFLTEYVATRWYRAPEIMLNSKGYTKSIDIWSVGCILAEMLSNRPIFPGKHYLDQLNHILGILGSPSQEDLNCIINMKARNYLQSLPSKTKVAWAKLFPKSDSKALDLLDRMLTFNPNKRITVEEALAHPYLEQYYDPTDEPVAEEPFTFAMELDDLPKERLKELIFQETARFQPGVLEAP
# [6] = target: Fibroblast growth factor receptor 3 (Homo sapiens) (UniProt P22607); experiment: Inhibition of human recombinant FGFR3 assessed as residual activity at 10 uM after 1 hr by qPCR analysis relative to control
# [7] = target: Glycogen synthase kinase-3 beta (Homo sapiens) (UniProt P49841); experiment: Inhibition of human recombinant GSK3B assessed as residual activity at 10 uM after 1 hr by qPCR analysis relative to control
# [8] = target: Tyrosine-protein kinase JAK3 (Homo sapiens) (UniProt P52333); experiment: Inhibition of human recombinant JAK3 (JH1 domain-catalytic) assessed as residual activity at 10 uM after 1 hr by qPCR analysis relative to control
# Sequence of Tyrosine-protein kinase JAK3 (Homo sapiens) (P52333 whole entry, the tested form may be a part): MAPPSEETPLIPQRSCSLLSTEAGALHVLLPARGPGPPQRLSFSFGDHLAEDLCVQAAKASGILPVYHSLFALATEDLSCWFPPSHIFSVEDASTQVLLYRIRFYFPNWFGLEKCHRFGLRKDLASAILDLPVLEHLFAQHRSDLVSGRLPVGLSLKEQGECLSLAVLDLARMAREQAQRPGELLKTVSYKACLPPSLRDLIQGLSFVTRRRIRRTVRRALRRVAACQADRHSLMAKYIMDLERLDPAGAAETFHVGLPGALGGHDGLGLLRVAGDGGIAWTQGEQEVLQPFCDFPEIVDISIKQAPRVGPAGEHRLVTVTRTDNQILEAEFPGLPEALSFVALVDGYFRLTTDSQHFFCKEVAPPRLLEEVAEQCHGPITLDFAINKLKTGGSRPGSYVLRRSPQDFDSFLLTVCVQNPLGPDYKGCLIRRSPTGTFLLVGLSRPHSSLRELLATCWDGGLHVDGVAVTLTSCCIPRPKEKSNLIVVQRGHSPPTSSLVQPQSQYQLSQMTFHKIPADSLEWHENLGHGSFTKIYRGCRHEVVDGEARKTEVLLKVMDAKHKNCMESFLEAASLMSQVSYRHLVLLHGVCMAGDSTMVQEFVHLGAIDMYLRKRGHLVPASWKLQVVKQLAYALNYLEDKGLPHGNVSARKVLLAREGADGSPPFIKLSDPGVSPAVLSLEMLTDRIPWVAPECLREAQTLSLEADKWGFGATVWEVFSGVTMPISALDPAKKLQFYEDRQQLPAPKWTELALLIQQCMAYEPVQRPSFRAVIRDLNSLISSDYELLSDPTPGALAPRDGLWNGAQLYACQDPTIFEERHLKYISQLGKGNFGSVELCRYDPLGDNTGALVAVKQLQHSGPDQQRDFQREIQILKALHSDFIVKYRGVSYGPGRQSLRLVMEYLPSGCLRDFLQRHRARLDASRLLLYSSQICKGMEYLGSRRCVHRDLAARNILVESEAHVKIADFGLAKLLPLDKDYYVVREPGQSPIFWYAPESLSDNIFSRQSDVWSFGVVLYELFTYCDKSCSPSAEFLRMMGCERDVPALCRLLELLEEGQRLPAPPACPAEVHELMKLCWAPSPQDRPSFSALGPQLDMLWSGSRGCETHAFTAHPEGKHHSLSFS
# [9] = target: Mitogen-activated protein kinase 9 (Homo sapiens) (UniProt P45984); experiment: Inhibition of human recombinant JNK2 assessed as residual activity at 10 uM after 1 hr by qPCR analysis relative to control
# [10] = target: Mast/stem cell growth factor receptor Kit (Homo sapiens) (UniProt P10721); experiment: Inhibition of human recombinant KIT assessed as residual activity at 10 uM after 1 hr by qPCR analysis relative to control
# [11] = system: Mast/stem cell growth factor receptor Kit (Homo sapiens), P10721 [D816V]; experiment: Inhibition of human recombinant KIT D816V mutant assessed as residual activity at 10 uM after 1 hr by qPCR analysis relative to control
# Sequence of Mast/stem cell growth factor receptor Kit (Homo sapiens), P10721 [D816V] (P10721 whole entry D816V): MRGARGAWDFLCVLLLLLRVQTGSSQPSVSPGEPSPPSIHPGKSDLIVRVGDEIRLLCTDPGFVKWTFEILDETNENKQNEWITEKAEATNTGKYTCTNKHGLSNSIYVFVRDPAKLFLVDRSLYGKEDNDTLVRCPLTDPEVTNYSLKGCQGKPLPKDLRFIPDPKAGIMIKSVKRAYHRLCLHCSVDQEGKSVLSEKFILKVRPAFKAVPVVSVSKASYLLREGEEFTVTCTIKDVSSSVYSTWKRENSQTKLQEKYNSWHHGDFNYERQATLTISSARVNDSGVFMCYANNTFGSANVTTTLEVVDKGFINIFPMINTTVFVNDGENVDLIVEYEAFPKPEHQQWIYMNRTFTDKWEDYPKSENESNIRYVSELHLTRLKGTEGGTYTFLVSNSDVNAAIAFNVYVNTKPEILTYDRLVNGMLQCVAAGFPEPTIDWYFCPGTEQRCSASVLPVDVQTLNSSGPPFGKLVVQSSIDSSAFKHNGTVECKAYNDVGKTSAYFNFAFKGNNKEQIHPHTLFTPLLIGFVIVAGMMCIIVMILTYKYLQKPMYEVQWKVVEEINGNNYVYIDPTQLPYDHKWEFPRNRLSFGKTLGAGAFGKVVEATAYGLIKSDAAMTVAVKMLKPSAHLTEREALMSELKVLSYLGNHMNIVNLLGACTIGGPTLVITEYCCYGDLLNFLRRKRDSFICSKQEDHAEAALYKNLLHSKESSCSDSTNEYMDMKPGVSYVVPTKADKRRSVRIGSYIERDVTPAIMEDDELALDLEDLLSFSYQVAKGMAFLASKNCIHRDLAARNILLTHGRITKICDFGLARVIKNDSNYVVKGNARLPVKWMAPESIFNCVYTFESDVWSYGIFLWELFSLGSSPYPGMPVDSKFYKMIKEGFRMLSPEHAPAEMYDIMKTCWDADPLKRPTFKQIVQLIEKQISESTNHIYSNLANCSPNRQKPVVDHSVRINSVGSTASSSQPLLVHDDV
# [12] = system: Mast/stem cell growth factor receptor Kit (Homo sapiens), P10721 [V559D,T670I]; experiment: Inhibition of human recombinant KIT V559D/T670I double mutant assessed as residual activity at 10 uM after 1 hr by qPCR analysis relative to control
# [13] = target: MAP kinase-activated protein kinase 2 (Homo sapiens) (UniProt P49137); experiment: Inhibition of human recombinant MAPKAPK2 assessed as residual activity at 10 uM after 1 hr by qPCR analysis relative to control
# [14] = target: Dual specificity mitogen-activated protein kinase kinase 1 (Homo sapiens) (UniProt Q02750); experiment: Inhibition of human recombinant MEK1 assessed as residual activity at 10 uM after 1 hr by qPCR analysis relative to control
# [15] = target: Dual specificity mitogen-activated protein kinase kinase 2 (Homo sapiens) (UniProt P36507); experiment: Inhibition of human recombinant MEK2 assessed as residual activity at 10 uM after 1 hr by qPCR analysis relative to control
# Sequence of Dual specificity mitogen-activated protein kinase kinase 2 (Homo sapiens) (P36507 whole entry): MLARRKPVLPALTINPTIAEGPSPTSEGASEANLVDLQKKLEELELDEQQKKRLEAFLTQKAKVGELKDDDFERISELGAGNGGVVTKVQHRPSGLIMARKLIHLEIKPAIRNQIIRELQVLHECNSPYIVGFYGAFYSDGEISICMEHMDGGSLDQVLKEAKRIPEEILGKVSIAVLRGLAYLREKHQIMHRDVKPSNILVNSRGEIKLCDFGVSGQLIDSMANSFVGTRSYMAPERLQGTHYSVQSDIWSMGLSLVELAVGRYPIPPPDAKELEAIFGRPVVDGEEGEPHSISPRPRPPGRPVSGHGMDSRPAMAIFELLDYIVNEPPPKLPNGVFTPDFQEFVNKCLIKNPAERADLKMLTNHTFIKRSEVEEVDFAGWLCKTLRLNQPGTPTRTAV
# [16] = target: Mitogen-activated protein kinase kinase kinase 9 (Homo sapiens) (UniProt P80192); experiment: Inhibition of human recombinant MLK1 assessed as residual activity at 10 uM after 1 hr by qPCR analysis relative to control
# [17] = target: Mitogen-activated protein kinase 14 (Homo sapiens) (UniProt Q16539); experiment: Inhibition of human recombinant p38alpha assessed as residual activity at 10 uM after 1 hr by qPCR analysis relative to control
# [18] = target: Serine/threonine-protein kinase PAK 1 (Homo sapiens) (UniProt Q13153); experiment: Inhibition of human recombinant PAK1 assessed as residual activity at 10 uM after 1 hr by qPCR analysis relative to control
# [19] = target: Platelet-derived growth factor receptor beta (Homo sapiens) (UniProt P09619); experiment: Inhibition of human recombinant PDGFRB assessed as residual activity at 10 uM after 1 hr by qPCR analysis relative to control
# [20] = target: Phosphatidylinositol 4-phosphate 3-kinase C2 domain-containing subunit beta (Homo sapiens) (UniProt O00750); experiment: Inhibition of human recombinant PIK3C2B assessed as residual activity at 10 uM after 1 hr by qPCR analysis relative to control
# [21] = target: Serine/threonine-protein kinase PLK1 (Homo sapiens) (UniProt P53350); experiment: Inhibition of human recombinant PLK1 assessed as residual activity at 10 uM after 1 hr by qPCR analysis relative to control
# [22] = target: RAF proto-oncogene serine/threonine-protein kinase (Homo sapiens) (UniProt P04049); experiment: Inhibition of human recombinant RAF1 assessed as residual activity at 10 uM after 1 hr by qPCR analysis relative to control
# [23] = target: Proto-oncogene tyrosine-protein kinase Src (Homo sapiens) (UniProt P12931); experiment: Inhibition of human recombinant SRC assessed as residual activity at 10 uM after 1 hr by qPCR analysis relative to control
# [24] = target: SRSF protein kinase 3 (Homo sapiens) (UniProt Q9UPE1); experiment: Inhibition of human recombinant SRPK3 assessed as residual activity at 10 uM after 1 hr by qPCR analysis relative to control
# [25] = target: High affinity nerve growth factor receptor (Homo sapiens) (UniProt P04629); experiment: Inhibition of human recombinant TRKA assessed as residual activity at 10 uM after 1 hr by qPCR analysis relative to control
# Mus musculus = experiment: Toxicity in athymic nude/beige mouse xenografted with human 786-O cells assessed as dark circles around eyes at 0.16 mg/kg, ip qd after 24 days; assay type: organism-based, 786-0; conditions: in vivo, 576 h
# [26] = system: Tyrosine-protein kinase ABL1 (Homo sapiens), P00519 [E255K]; experiment: Inhibition of human recombinant phosphorylated ABL1 E255K mutant assessed as residual activity at 10 uM after 1 hr by qPCR analysis relative to control
# [27] = system: Tyrosine-protein kinase ABL1 (Homo sapiens), P00519 [T315I]; experiment: Inhibition of human recombinant phosphorylated ABL1 T315I mutant assessed as residual activity at 10 uM after 1 hr by qPCR analysis relative to control
# [28] = target: Aurora kinase B (Homo sapiens) (UniProt Q96GD4); experiment: Inhibition of human recombinant AURKB assessed as residual activity at 10 uM after 1 hr by qPCR analysis relative to control
# Sequence of Aurora kinase B (Homo sapiens) (Q96GD4 whole entry): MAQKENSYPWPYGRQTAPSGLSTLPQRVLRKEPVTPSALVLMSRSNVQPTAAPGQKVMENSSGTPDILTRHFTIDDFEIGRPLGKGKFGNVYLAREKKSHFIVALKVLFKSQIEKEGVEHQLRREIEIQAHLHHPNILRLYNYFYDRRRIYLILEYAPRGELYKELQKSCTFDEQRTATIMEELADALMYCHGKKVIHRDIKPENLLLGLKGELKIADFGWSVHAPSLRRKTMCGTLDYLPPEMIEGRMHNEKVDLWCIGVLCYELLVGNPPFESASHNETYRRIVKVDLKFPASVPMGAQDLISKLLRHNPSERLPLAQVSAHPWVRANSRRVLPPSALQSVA
# [29] = target: Bone morphogenetic protein receptor type-2 (Homo sapiens) (UniProt Q13873); experiment: Inhibition of human recombinant BMPR2 assessed as residual activity at 10 uM after 1 hr by qPCR analysis relative to control
# Sequence of Casein kinase I isoform delta (Homo sapiens) (P48730 whole entry, looked up, canonical isoform): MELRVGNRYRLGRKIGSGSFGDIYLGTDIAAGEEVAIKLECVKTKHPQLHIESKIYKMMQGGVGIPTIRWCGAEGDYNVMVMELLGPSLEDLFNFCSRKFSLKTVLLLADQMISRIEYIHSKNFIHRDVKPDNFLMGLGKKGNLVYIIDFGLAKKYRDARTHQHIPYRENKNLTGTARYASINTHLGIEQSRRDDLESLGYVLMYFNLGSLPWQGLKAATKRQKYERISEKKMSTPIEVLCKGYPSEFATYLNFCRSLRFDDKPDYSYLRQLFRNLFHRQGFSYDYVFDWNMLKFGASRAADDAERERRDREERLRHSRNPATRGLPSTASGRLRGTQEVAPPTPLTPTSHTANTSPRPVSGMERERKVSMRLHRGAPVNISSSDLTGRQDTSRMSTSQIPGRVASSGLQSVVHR
smiles,measurement,setting,value
Cc1c(Cl)cccc1NC(=O)c1sc2nc3c(cc2c1N)C(=O)CC3,Activity,[1],100%
same,Activity,[2],57%
same,Activity,[3],100%
same,Activity,[4],96%
same,Activity,[5],98%
same,Activity,[6],100%
same,Activity,[7],92%
same,Activity,[8],100%
same,Activity,[9],93%
same,Activity,[10],95%
same,Activity,[11],93%
same,Activity,[12],99%
same,Activity,[13],100%
same,Activity,[14],100%
same,Activity,[15],98%
same,Activity,[16],99%
same,Activity,[17],100%
same,Activity,[18],87%
same,Activity,[19],95%
same,Activity,[20],100%
same,Activity,[21],91%
same,Activity,[22],100%
same,Activity,[23],95%
same,Activity,[24],100%
same,Activity,[25],84%
same,Activity,Mus musculus,Toxic
same,Activity,[26],100%
same,Activity,[27],90%
same,Activity,[28],92%
same,Activity,[29],96%
